Test results reported in the supplement of paper PMC5908809.

Key:
[1] = test system: normal NK cells expanded with K562-aAPC; experiment: drug sensitivity score (DSS) (DSS units); higher = more sensitive; extreme values may be limits of the assay; details: 72 h; IL-2 2.5 ng/mL
Experimental: (§1)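 Drug sensitivity and resistance testing on K562-aAPC-expanded normal NK cells: 5 concentrations (10-fold steps over a 10,000-fold range), 72 h at 37 °C, viability by CellTiter-Glo normalised to DMSO and benzethonium chloride controls; DSS from the fitted curve.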

[2] = test system: normal primary NK cells, pool 3 (3 donors) (IL-2 2.5 ng/mL); experiment: percent inhibition of viability; higher = more inhibition; details: 72 h
[3] = test system: normal primary NK cells, pool 2 (3 donors) (IL-2 2.5 ng/mL); experiment: as above; details: 72 h
IMC-1 (IL-2 20 ng/mL) [4] = experiment: as above; details: 72 h
[5] = test system: normal NK cells expanded with K562-aAPC; experiment: as above; details: 72 h, IL-2 2.5 ng/mL
Experimental: as §1

[6] = test system: normal primary NK cells, pool 3 (3 donors) (IL-2 2.5 ng/mL); experiment: drug sensitivity score (DSS) (DSS units); higher = more sensitive; extreme values may be limits of the assay; details: 72 h
[7] = test system: normal primary NK cells, pool 2 (3 donors) (IL-2 2.5 ng/mL); experiment: as above; details: 72 h
IMC-1 (IL-2 20 ng/mL) [8] = experiment: as above; details: 72 h
KHYG-1 (IL-2 2.5 ng/mL) [9] = experiment: percent inhibition of viability; higher = more inhibition; details: 72 h
SNK-6 (IL-2 2.5 ng/mL) [10] = experiment: as above; details: 72 h
[11] = test system: normal primary NK cells, pool 1 (3 donors) (IL-2 2.5 ng/mL); experiment: as above; details: 72 h
YT (IL-2 2.5 ng/mL) [12] = experiment: as above; details: 72 h
NK-YS (IL-2 2.5 ng/mL) [13] = experiment: as above; details: 72 h
DERL-7 (IL-2 2.5 ng/mL) [14] = experiment: as above; details: 72 h
NKL (IL-2 2.5 ng/mL) [15] = experiment: as above; details: 72 h
NK-92 (IL-2 2.5 ng/mL) [16] = experiment: as above; details: 72 h
[17] = test system: normal primary NK cells, pool 1 (3 donors), resting (IL-2 0 ng/mL); experiment: as above; details: 72 h
KAI3 (IL-2 2.5 ng/mL) [18] = experiment: as above; details: 72 h
KHYG-1 (IL-2 2.5 ng/mL) [19] = experiment: drug sensitivity score (DSS) (DSS units); higher = more sensitive; extreme values may be limits of the assay; details: 72 h
SNK-6 (IL-2 2.5 ng/mL) [20] = experiment: as above; details: 72 h
[21] = test system: normal primary NK cells, pool 1 (3 donors) (IL-2 2.5 ng/mL); experiment: as above; details: 72 h
YT (IL-2 2.5 ng/mL) [22] = experiment: as above; details: 72 h
NK-YS (IL-2 2.5 ng/mL) [23] = experiment: as above; details: 72 h
DERL-7 (IL-2 2.5 ng/mL) [24] = experiment: as above; details: 72 h
NKL (IL-2 2.5 ng/mL) [25] = experiment: as above; details: 72 h
NK-92 (IL-2 2.5 ng/mL) [26] = experiment: as above; details: 72 h
[27] = test system: normal primary NK cells, pool 1 (3 donors), resting (IL-2 0 ng/mL); experiment: as above; details: 72 h
KAI3 (IL-2 2.5 ng/mL) [28] = experiment: as above; details: 72 h

CC(=O)O[C@]1(C(C)=O)CC[C@H]2[C@@H]3C=C(C)C4=CC(=O)CC[C@]4(C)[C@H]3CC[C@@]21C [Megestrol acetate] (max concentration tested 10000 nM)
Details | drug sensitivity score
IMC-1 (IL-2 20 ng/mL) [8] | 0
[1] | 2.54
[6] | 1.28
[7] | 4.38

percent inhibition of viability [%]
Details | 1 nM | 10 nM | 100 nM | 1000 nM | 10000 nM
IMC-1 (IL-2 20 ng/mL) [4] | -3.51 | -1.23 | -4.32 | -2.13 | 10.4
[2] | -8.34 | -5.63 | 0.83 | 2.52 | 24.3
[3] | -3.39 | 3.68 | -0.74 | 11.2 | 49.3
[5] | -2.74 | -5.98 | 7.94 | 13.9 | 28.7

COc1cc(C(=O)O)ccc1NC(=O)[C@@H]1N[C@@H](CC(C)(C)C)[C@](C#N)(c2ccc(Cl)cc2F)[C@H]1c1cccc(Cl)c1F [RG7388] (max concentration tested 10000 nM)
percent inhibition of viability [%]
Details | DERL-7 (IL-2 2.5 ng/mL) [14] | KAI3 (IL-2 2.5 ng/mL) [18] | KHYG-1 (IL-2 2.5 ng/mL) [9] | NK-92 (IL-2 2.5 ng/mL) [16] | NK-YS (IL-2 2.5 ng/mL) [13] | NKL (IL-2 2.5 ng/mL) [15] | SNK-6 (IL-2 2.5 ng/mL) [10] | YT (IL-2 2.5 ng/mL) [12] | [11] | [17]
1 nM | -5.33 | 5.19 | -1.57 | 2.22 | 1.18 | 2.91 | 3.57 | 6.01 | 1.86 | -11.7
10 nM | 3.83 | 25.6 | 1.09 | -12.5 | 18.7 | 8.19 | 25.5 | 14.9 | -0.07 | 10.5
100 nM | 51.1 | 39.8 | -3.21 | 8.42 | 53.1 | 7.58 | 70.5 | 38.6 | 41.8 | 85.2
1000 nM | 96.7 | 59.1 | -4.2 | 8.41 | 82.9 | 5.83 | 81.8 | 50.9 | 90.3 | 92.2
10000 nM | 101 | 68.4 | 53.8 | 65.4 | 99.9 | 67 | 92.7 | 86.7 | 99.1 | 93.6

Details | drug sensitivity score
DERL-7 (IL-2 2.5 ng/mL) [24] | 23.8
KAI3 (IL-2 2.5 ng/mL) [28] | 18.3
KHYG-1 (IL-2 2.5 ng/mL) [19] | 2.54
NK-92 (IL-2 2.5 ng/mL) [26] | 5
NK-YS (IL-2 2.5 ng/mL) [23] | 23.3
NKL (IL-2 2.5 ng/mL) [25] | 4.61
SNK-6 (IL-2 2.5 ng/mL) [20] | 27.2
YT (IL-2 2.5 ng/mL) [22] | 16.1
[21] | 21.8
[27] | 28.8

CCCC(CCC)C(=O)O [Valproic acid] (max concentration tested 1000000 nM)
Details | drug sensitivity score
IMC-1 (IL-2 20 ng/mL) [8] | 0.34
[1] | 2
[6] | 0.1
[7] | 1.5

percent inhibition of viability [%]
Details | 100 nM | 1000 nM | 10000 nM | 100000 nM | 1000000 nM
IMC-1 (IL-2 20 ng/mL) [4] | -0.33 | -1.48 | -8.1 | -1.23 | 17.4
[2] | -5.69 | -8.36 | -12.2 | -3.8 | 14.2
[3] | -3.47 | -9.08 | -3.52 | 0.62 | 31.7
[5] | -5.06 | -5.78 | -6.14 | 2.07 | 35.9

C[C@]12CC[C@@H]3c4ccc(OC(=O)N(CCCl)CCCl)cc4CC[C@H]3[C@@H]1CC[C@@H]2O [Estramustine] (max concentration tested 10000 nM)
Details | drug sensitivity score
IMC-1 (IL-2 20 ng/mL) [8] | 0
[1] | 0
[6] | 0
[7] | 0

percent inhibition of viability [%]
Details | 1 nM | 10 nM | 100 nM | 1000 nM | 10000 nM
IMC-1 (IL-2 20 ng/mL) [4] | -0.43 | -1.35 | -3.43 | -6.09 | -6.87
[2] | -8.4 | -4.19 | -7.49 | -10.1 | -9.53
[3] | 10 | -2.77 | -6.62 | -4.76 | -8.48
[5] | -5.93 | -3.58 | -7.28 | -7.29 | -6.53

Cc1sc2c(c1C)C(c1ccc(Cl)cc1)=N[C@@H](CC(=O)OC(C)(C)C)c1nnc(C)n1-2 [(+)JQ1] (max concentration tested 10000 nM)
percent inhibition of viability [%]
Details | DERL-7 (IL-2 2.5 ng/mL) [14] | KAI3 (IL-2 2.5 ng/mL) [18] | KHYG-1 (IL-2 2.5 ng/mL) [9] | NK-92 (IL-2 2.5 ng/mL) [16] | NK-YS (IL-2 2.5 ng/mL) [13] | NKL (IL-2 2.5 ng/mL) [15] | SNK-6 (IL-2 2.5 ng/mL) [10] | YT (IL-2 2.5 ng/mL) [12] | [11] | [17]
1 nM | 3.63 | -7.52 | -9.07 | -5.26 | -10.6 | -9.69 | -15.8 | 1.34 | 1.42 | -3.74
10 nM | 11.6 | -10.2 | -3.7 | -16.7 | -2.12 | -1.54 | -1.34 | -1.16 | 1.32 | -13
100 nM | 54.6 | 3.52 | 24.7 | -31.8 | 19.8 | 29.4 | 12.2 | 8.16 | 9.32 | -3.42
1000 nM | 96.1 | 47.9 | 89.8 | 22.2 | 62.4 | 69 | 71.4 | 56.7 | 56.9 | 34
10000 nM | 98.5 | 53.6 | 92.7 | 35.5 | 73.2 | 60.9 | 74.2 | 59.4 | 84.1 | 74.8

Details | drug sensitivity score
DERL-7 (IL-2 2.5 ng/mL) [24] | 24.3
KAI3 (IL-2 2.5 ng/mL) [28] | 9.24
KHYG-1 (IL-2 2.5 ng/mL) [19] | 19.9
NK-92 (IL-2 2.5 ng/mL) [26] | 4.26
NK-YS (IL-2 2.5 ng/mL) [23] | 13.9
NKL (IL-2 2.5 ng/mL) [25] | 16.6
SNK-6 (IL-2 2.5 ng/mL) [20] | 15
YT (IL-2 2.5 ng/mL) [22] | 11.7
[21] | 12.1
[27] | 8.55
